Experimental findings from patent US9920037B2, “Diaryl isoxazoline compound” (Elanco Tiergesundheit AG, priority 2014, dated 2018) are described below.

For assay [1], the system named is Lepeophtheirus salmonis copepodids. Briefly: Activity in vitro against Lepeophtheirus salmonis at copepodid stage. Format: cell-based. Conditions: 0.16 ng/ml sea water; 1 hour contact, then 48 h in untreated sea water. The method, then: Sea lice copepodids were used to seed a 96-well plate containing the test substances to be evaluated for antiparasitic activity. The racemic compound of formula (I) according to the present invention and the racemic compound No. 1.48 according to WO2010/070068, page 47 were tested by serial dilution in order to determine its minimal effective dose (MED). Copepodids were left in contact with each test compound diluted in sea water for 1 hour. They were then incubated in untreated sea water for 48 h. Efficacy against sea lice was then confirmed if no copepodid moved over a period of 80 seconds.

Assay [2] concerns Rhipicephalus sanguineus nymphs. Briefly: Activity in vivo against Rhipicephalus sanguineus nymphs on Mongolian gerbils (spray application). Conditions: 1.0 mg/kg animal biomass, Mongolian gerbils (Meriones unguiculatus). The method, then: On day 0, gerbils are treated with the respective test compound at a given dose by spray application. On day +1 (+2), the animals are infested with nymphs of R. sanguineus. Ticks are left on the animals until full repletion. Seven days after infestation nymphs dropped off fully engorged are collected and counted. Efficacy in killing is expressed as a tick number reduction in comparison with a placebo treated group, using the Abbot's formula.

The subject of assay [3] is adult R. sanguineus ticks. As to the kind of experiment: Activity in vivo against Rhipicephalus sanguineus ticks (dog tick) on rabbits. Particulars: spray application on ears; for threshold concentration where the efficacy drops below 90%: rabbits. The method, then: On day 0, rabbits are treated with the test compound at a given dose by spray application on their ears only. On day +1, the animals are infested on their ears with adult R. sanguineus ticks (sex ratio 1:1). Evaluation of efficacy is performed 24 h, 48 h, and 72 h after infestation by counting the numbers of dead and live ticks recovered from the animals. Efficacy is expressed as comparison with a placebo treated group using the Abbot's formula. Infestations can be repeated at weekly intervals until efficacy drops. The racemic compound of formula (I) according to the present invention and the racemic compound No. 1.48 according to WO2010/070068, page 47 were tested at different concentrations in order to determine the threshold concentration where the efficacy drops below 90%.

The subject of assay [4] is sea lice Lepeophtheirus salmonis. As to the kind of experiment: Activity in vivo against copepodids (Lepeophtheirus salmonis) on Atlantic salmon, medicated feed. Particulars: Atlantic salmon (Salmo salar L.), medicated feed 1 mg/kg/day for 7 consecutive days; counted 10 days after treatment end. The method, then:
The study used two groups of 45 Atlantic salmon (Salmo salar L.), each, with an average weight of 400 g per fish. Fish were challenged with sea lice copepodids Lepeophtheirus salmonis) (Cohort I). When cohort I reached pre-adult stage, all fish were challenged with a second cohort of sea lice copepodids (Cohort II).
Treatment was initiated when sea lice in cohort I became pre-adult/adults and sea lice in cohort II were early chalimus stages:
One group was treated with medicated feed-pellet containing the (S)-enantiomer of the compound of formula (I) at 1 mg/kg/day, during 7 consecutive days. One group was a placebo control group. The medicated pellets were prepared by dry coating commercially available fish feed pellets with a pre-mix containing the (S)-enantiomer of the compound of formula (I) to reach a content of 0.02% (w/w) active ingredient in the fish feed.
Sea lice were counted 10 days after treatment end.

With `C#CCNC(=O)CNC(=O)c1sc(C2=NOC(c3cc(Cl)cc(Cl)c3)(C(F)(F)F)C2)cc1C` (racemic) [racemic compound No. 1.48, reference compound], in assay [1], the “efficacy (no copepodid moved over 80 seconds)” value worked out at 0%. Further, the “efficacy (tick number reduction vs placebo, Abbot's formula)” value in assay [2] is listed as 77%. For the same compound, the “efficacy (vs placebo, Abbot's formula)” value in assay [3] (15 mg/m^2, rabbits) is recorded as 82%. In addition, in assay [3], the “threshold concentration where the efficacy drops below 90%” value stood at 15 mg/m^2.
In the case of `C#CCNC(=O)CNC(=O)c1sc(C2=NOC(c3cc(Cl)c(Cl)c(Cl)c3)(C(F)(F)F)C2)cc1C` (racemic) [racemic compound of formula (I)], the “efficacy (no copepodid moved over 80 seconds)” value in assay [1] is 100%. Moreover, the “efficacy (tick number reduction vs placebo, Abbot's formula)” value in assay [2] was found to be 87%. The “efficacy (vs placebo, Abbot's formula)” value in assay [3] (3 mg/m^2, rabbits) was found to be 73%; in assay [3] (7.5 mg/m^2, rabbits), 93%. In assay [3], the “threshold concentration where the efficacy drops below 90%” value came out at 3 mg/m^2.
In the case of `C#CCNC(=O)CNC(=O)c1sc(C2=NO[C@@](c3cc(Cl)c(Cl)c(Cl)c3)(C(F)(F)F)C2)cc1C` [(S)-enantiomer of the compound of formula (I)], the “efficacy (sea lice count)” value in assay [4] is reported as 100%.
